Where two headings read alike, the source gives them in different places.
Assays:
[1] = tested on: A. fumigatus mutant strain ΔsidAΔftrA; test: Growth promotion assay (siderophore utilization), ΔsidAΔftrA; assay type: cell-based, Aspergillus fumigatus; conditions: siderophores in ferri-form, 0.1, 1.0, 10 and 50 μM; 48 h at 37 °C
Experimental: (§1) In order to investigate whether A. fumigatus is able to utilize the artificial FOX analogues in the iron form as an iron source, growth promotion assays were performed (Figure 2) using two A. fumigatus mutants. The mutant strain ΔsidAΔftrA is able to grow only in the presence of utilizable siderophores or ferrous iron concentration >3 mM.[10],[44] The second mutant, ΔsidAΔftrAΔsit1, additionally lacks the siderophore transporter Sit1, which exclusively mediates the uptake of ferrioxamine-type siderophores and is additionally involved in the uptake of ferrichrome-type and coprogen-type siderophores but not of FsC or TAFC.[19],[20] For growth promotion analysis, the mutants were spotted on iron-lacking media supplemented with different concentrations of siderophores. Control experiments confirmed the expected growth pattern: growth of ΔsidAΔftrA but not of ΔsidAΔftrAΔsit1 was promoted by supplementation with ferric FOXE; both mutant strains were able to grow in the presence of TAFC as uptake of this siderophore depends on MirB but not on Sit1; both mutant strains lacked growth without siderophore supplementation, and uninoculated media also lacked fungal growth. […] The utilization of iron from all artificial ferrioxamine analogues was mediated by Sit1 like that of natural ferrioxamine-type siderophores.[20]
Figure 2 Growth promotion analysis of FOX analogues. 10^4 conidia of A. fumigatus mutant strains ΔsidAΔftrA (A) and ΔsidAΔftrAΔsit1 (B) were point-inoculated for every condition. All natural and artificial siderophores were tested in the ferri-form in the concentrations 0.1, 1.0, 10, and 50 μM. As controls, TAFC, which is taken up in a Sit1-independent manner, and FOXE were included. Moreover, controls without siderophore supplementation with (+) or without (−) inoculation of conidia were included. Greenish coloration of the fungal colonies indicates asexual sporulation. Pictures were taken after 48 h of incubation at 37 °C. […]

[2] = tested on: iron-starved (Fe(−)) A. fumigatus cultures; test: Short-term in vitro uptake of 68Ga-labeled siderophores; assay type: cell-based, Aspergillus fumigatus; conditions: paired t test, p < 0.01
Experimental: To investigate the short-term active transport of ^68Ga-labeled FOXE analogues by A. fumigatus, iron-starved (Fe(−)) cultures were used (Figure 3). As a control, the same cultures were incubated with Fe(III)-FOXE beforehand to saturate and therefore block Sit1-mediated activity. A decrease in uptake upon Fe(III)-FOXE blocking underlines specific uptake by the same transporters recognizing FOXE.
Figure 3 Uptake of ^68Ga-labeled FOXE analogues by Fe(III)-FOXE-blocked and -unblocked iron-starved (Fe(−)) A. fumigatus cultures after 45 min of incubation. * indicates significant difference of blocking compared with nonblocking (mean of three independent experiments, paired t test, p < 0.01).
Uptake assays were performed in both iron-deficient and iron-sufficient A. fumigatus cultures as described previously.[55] The uptake of each [^68Ga]Ga(III)-FOXE derivative was expressed as the ratio to [^68Ga]Ga(III)-FOXE uptake from the same experiment in order to normalize uptake variations between different fungal cultures. The mean values of three different assays were used to quantitatively compare the difference in uptake between the compounds.

[3] = cited from earlier work
[4] = set-up: method as in earlier work; conditions: cited from earlier work; for logβ Ga(III)L: T = 25 °C, I = 0.1 M NaClO4, M:L 1:1; for pGa(III): calculated for [L] = 1 × 10−4 [M] = 1 × 10−5 at pH 7.4
[5] = tested on: A. fumigatus mutant strain ΔsidAΔftrAΔsit1; test: Growth promotion assay (siderophore utilization), Sit1-lacking ΔsidAΔftrAΔsit1; assay type: cell-based, Aspergillus fumigatus; conditions: siderophores in ferri-form, 0.1, 1.0, 10 and 50 μM; 48 h at 37 °C
Experimental: as §1
Figure 2 Growth promotion analysis of FOX analogues. […]

S. aureus cultures = tested on: S. aureus cultures; set-up: method as in PMID 34783539; conditions: 68Ga-labeled, iron-deficient cultures; cited from earlier work

Compound	growth promotion of ΔsidAΔftrA [1]	difference between Fe(III)-FOXE-blocked and -unblocked uptake [2]	logβ Fe(III)L ([3]; T = 25 °C, I = 0.1 M NaClO4, M:L 1:1)	pFe(III) ([3]; calculated for [L] = 1 × 10−4 [M] = 1 × 10−5 at pH 7.4)	logβ Ga(III)L [4]	pGa(III) [4]	growth of ΔsidAΔftrAΔsit1 (Sit1 dependence) [5]	uptake (radioactivity level) in S. aureus cultures (S. aureus cultures)	logβ Fe(III)L ([3]; ref Reference2)
O=C1CCN(O)C(=O)CCNC(=O)CCN(O)C(=O)CCNC(=O)CCN(O)C(=O)CCN1 [FOX 2–2]	very limited growth promotion only at the highest tested concentration of 50 μM	statistically insignificant	25.92(8)	21.5	26.44(5)	21.4	–	–	–
O=C1CCC(=O)N(O)CCCCCNC(=O)CCC(=O)N(O)CCCCCNC(=O)CCC(=O)N(O)CCCCCN1 [FOXE, ferrioxamine E]	promoted	–	–	–	29.79(1)	25.2	not	high radioactivity levels	32.21(4)
triacetylfusarinine C [TAFC]	able to grow	–	–	–	–	–	able to grow	–	–
